In general, bioavailability refers to dose-corrected exposure relative to a reference, in per cent. What is called AUC is the area under the concentration-time curve, a measure of exposure. The AUC(0-inf) is total exposure, with the tail of the curve extrapolated. As usually defined, the IC50 is the concentration at which inhibition is half-maximal.

The values below come from patent US20260146044A1, “AROMATIC COMPOUND, PHARMACEUTICAL COMPOSITION CONTAINING SAME, AND USE THEREOF” (Increland, priority 2023, published 2026).

Like-named read-outs stand apart in the source and are kept apart here. Bounds are passed on as bounds.

For data set [1], the system named is IMQ-induced psoriasis model. Nature of the data set: IMQ-induced psoriasis model, skin thickening and ear thickening. The settings on record: BID, gavage; for IMQ-induced psoriatic ear thickening, P compared with the Model group: FIG. 2. The data set is classed as in vivo, BALB/c mice. As to the method:
Male BALB/c mice aged 6-8 weeks were randomly grouped into 15 groups or 6 groups after 1 week of adaptive feeding: control group, imiquimod model group (i.e., Model group), clobetasol propionate group (i.e., CLO group), the compounds of the present invention: TM-57 ICL-004192 (3 mg/kg, 10 mg/kg, 30 mg/kg), TM-109ICL-004240 (3 mg/kg, 10 mg/kg, 30 mg/kg, 60 mg/kg), TM-101ICL-004250 (3 mg/kg, 10 mg/kg, 30 mg/kg, 60 mg/kg), with 5 mice per group, and the Control group, the imiquimod model group (i.e., the Model group), and the clobetasol propionate group (i.e., the CLO group). On day 0, each of the mice was unhaired on the back using a hair removal cream, with a hair removal area of 2.5 cm×1.5 cm. On the first day, IMQ cream was used for modeling, and a corresponding drug was administered by gavage for treatment. The compounds of the present invention were administered by gavage at corresponding doses twice daily in the morning and evening with an interval of 8 h between two administrations. 2 h after the first gavage on a same day, the IMQ cream was applied to the to-be-unhaired site on the back and the left ear of each of the mice, with doses of the IMQ cream administered to the to-be-unhaired site on the back and the left ear being 62.5 mg and 7.5 mg, respectively. 5 h after the IMQ cream was applied to the to-be-unhaired area on the back and the left ear of each of the mice in the CLO group, clobetasol propionate cream was applied once daily. The blank group and the IMQ group were administrated with a vehicle twice daily in the morning and evening with an interval of 8 h between two administrations. […]
Referring to the Psoriasis Area and Severity Index (PASI) scoring criteria, the psoriasis, erythema, and thickness of skin lesions on the back were scored from 0 to 4 every morning from day 1 of modeling, with the scoring criteria as shown in Table 1. […] The ear thickness of the left ear of the mouse was measured using a digital vernier caliper three times every morning from day 1, to obtain a mean value.

The nature of data set [2]: Pharmacokinetic experiment on mice (iv and ig). It counts as in vivo. The settings on record: mouse, plasma, BALB/c Mice; for bioavailability: ig 5.00 mg/kg vs iv 1.00 mg/kg, read-out: Oral bioavailability Fobs (%); for Cmax: read-out: Peak plasma concentration Cmax.
Data set [3] has as its system secretion levels of IL-6 in PBMC cells. The experiment in a line: Inhibition of LPS+IL-1β-induced IL-6 secretion in PBMC (IL-6 ELISA). It counts as cell-based. The settings on record: human PBMC, 24 h compound pre-incubation, 20 h stimulation. On the technique in general: ELISA stands for enzyme-linked immunosorbent assay.

As for `Cc1nn(C2CCC(=O)NC2=O)c2cccc(N3CC4CN(C[C@H]5CC[C@H](n6cc7cc(NC(=O)c8cnn9cccnc89)c(N8CCOCC8)cc7n6)CC5)CC4C3)c12` (stereo partly shown) [TM-57], the “IMQ-induced psoriatic skin thickening, P compared with the Model group” value in data set [1] (30 mg/kg, FIG. 1) is recorded as less than 0.01. The “IMQ-induced psoriatic ear thickening, P compared with the Model group” value in data set [1] (30 mg/kg) was less than 0.0001. The bioavailability in data set [2] (po) worked out at 48.4%. In addition, in data set [2] (po, ig, 5.00 mg/kg), the area under the curve (AUC) is 1770 ng·h/mL, the AUC(0-inf) is 1920 ng·h/mL and the Cmax is 342 ng/mL. Also, in data set [2] (iv, 1.00 mg/kg), the exposure (AUC) was 790 ng·h/mL, the AUC(0-inf) is 795 ng·h/mL and the Cmax was 276 ng/mL. This compound showed an IC50 in data set [3] of 8.67 nM.

Regarding `Cc1nn(C2CCC(=O)NC2=O)c2cncc(N3CCN(C[C@H]4CC[C@H](n5cc6cc(NC(=O)c7cnn8cccnc78)c(N7CCO[C@H](C)C7)cc6n5)CC4)CC3)c12` (stereo partly shown) [TM-109], the “IMQ-induced psoriatic ear thickening, P compared with the Model group” value in data set [1] (60 mg/kg) is less than 0.01. Moreover, the bioavailability in data set [2] (po) was found to be 63%. Moreover, in data set [2] (po, ig, 5.00 mg/kg), the AUC is 10100 ng·h/mL, the AUC(0-inf) was determined as 10100 ng·h/mL and the Cmax was 1300 ng/mL. For the same compound, in data set [2] (iv, 1.00 mg/kg), the AUC is 3220 ng·h/mL, the AUC(0-inf) worked out at 3220 ng·h/mL and the Cmax came to 605 ng/mL. In data set [3], this compound displayed a 50% inhibitory concentration (IC50) of 39.2 nM.
